By HC50 is commonly meant the concentration that lyses half of the red blood cells. Low readings indicate stronger haemolysis, high ones weaker haemolysis. The term MBC denotes the lowest tested concentration that kills the bacteria rather than only halting them. Low values mean more potent killing, high ones less potent killing.

Data set [1] deals with S. aureus isolates. Kind of data set: Kirby-Bauer disk diffusion antimicrobial susceptibility testing. Further: key: R: Resistant; S: Susceptible. The format is cell-based, Staphylococcus aureus. The text has this: Three MRSA, two MSSA clinical isolates, and one S. aureus reference strain (ATCC 25923) were investigated in this study. […] The presence of the mecA/mecC gene was studied by PCR in all cefoxitin resistant isolates[42],[43].
(In general: Agar diffusion results depend on both activity and mobility in agar.)

Data set [2] deals with clinical Salmonella isolates. Further details: method as in PMID 34361810. As to conditions: cited from earlier work.
In data set [3] the test system is drug resistant Mycobacterium abscessus isolates. Further details: method as in ref 33 (Sudadech et al.). Particulars: ref 33 (Sudadech et al.), cited from earlier work.
In a further data set the test system is Human red blood cells. Kind of data set: Hemolysis assay. As to conditions: human erythrocytes, 1 h, 37 °C. How it is done:
The assay was performed using fresh human blood samples containing citrate phosphate dextrose anticoagulant collected from a blood bank (Iranian Blood Transfusion Organization). Human red blood cells (RBC) were centrifuged at 1700×g for 5 min; then the supernatant was removed and the erythrocyte pellet was diluted 1:100 in PBS to obtain a 1% erythrocyte suspension. […] Then, 50 μl of the 1% erythrocyte suspension and 50 μl of the peptides were mixed and added to wells of a 96-well polypropylene conical bottom microplate and incubated at 37 °C for 1 h. Following centrifugation of the samples at 1700×g for 5 min, 50 μl of the supernatant was transferred to wells of a 96-well flat-bottom plate for the absorbance measurement at 405 nm in a microplate reader. Identical volumes of Triton X-100 (1%) and PBS were used as positive and negative controls, respectively. The selectivity indexes (SI) were also determined as a toxicity indicator.

Data set [4] deals with S. aureus isolates. Kind of data set: microbe, parasite or virus in culture. In kind it is cell-based, Staphylococcus aureus. How it is done:
(§1) Minimum inhibitory concentrations (MIC) of KLK, mKLK, and vancomycin were determined using microdilution broth assay according to clinical and laboratory standards institute (CLSI) guidelines with some modifications. Briefly, overnight cultures were diluted in Muller-Hinton broth (MHB; Merck, Germany) to achieve a final density of 5 × 10^5 CFU/ml. A volume of 100 μl of bacterial suspension was added to wells of sterile 96-well plates containing 100 μl of two-fold peptide dilutions, ranging from 0.25 to 256 µg/ml. Vancomycin was used as a positive control in this assay. […] MBC was determined by removing samples from wells with no visible growth, serially diluting, and plating on Mueller Hinton (MH) agar plates for CFU counting.

Data set [5] has as its system S. aureus isolates. The format is cell-based, Staphylococcus aureus. How it is done: as §1
For data set [6], the system named is one MRSA and reference strain (ATCC25923). Kind of data set: Time-kill kinetics assay.
Experimental: The peptide-free control was included for each strain. Following incubation at 37 °C for 0, 0.25, 0.5, 1, 2, 4, 5, and 24 h, each sample was serially diluted, plated onto Mueller–Hinton (MH) agar (Merck, Germany) plates and incubated at 37 °C. The viable plate count method was performed after incubation for 24 h and the counts were expressed as Log CFU/ml[44].

In brackets after ≈: the same amount, converted by molar mass. Several values for one entry are separate records, joined by “and”; a condition that tells them apart may be missing. Equal values may be shown once. Read-outs that look alike come from different tables or passages of the source.

As for `O=C(N[C@H](CO)[C@H](O)c1ccc([N+](=O)[O-])cc1)C(Cl)Cl` [C, Chloramphenicol], the Antimicrobial susceptibility testing entry in the data set on S. aureus isolates [1] (MRSA-1), with S. aureus isolates [1] (MRSA-2), in the data set with S. aureus isolates [1] (MRSA-3), with S. aureus isolates [1] (MSSA-1) and in the data set on S. aureus isolates [1] (MSSA-2) was “S” in each case.

As to `CNC(C)C1CCC(N)C(OC2C(N)CC(N)C(OC3OCC(C)(O)C(NC)C3O)C2O)O1` (centres unmarked) [GEN, Gentamicin], the Antimicrobial susceptibility testing entry in the data set with S. aureus isolates [1] (MRSA-1), in the data set with S. aureus isolates [1] (MRSA-2), in the data set on S. aureus isolates [1] (MRSA-3), in the data set on S. aureus isolates [1] (MSSA-1) and in the data set on S. aureus isolates [1] (MSSA-2) was “S” each time.

Take `CN(C)[C@@H]1C(O)=C(C(N)=O)C(=O)[C@@]2(O)C(O)=C3C(=O)c4c(O)cccc4[C@@](C)(O)[C@H]3C[C@@H]12` [TE, Tetracycline]: the Antimicrobial susceptibility testing entry in the data set on S. aureus isolates [1] (MRSA-1), with S. aureus isolates [1] (MRSA-2), in the data set on S. aureus isolates [1] (MRSA-3), with S. aureus isolates [1] (MSSA-1) and in the data set on S. aureus isolates [1] (MSSA-2) was “R” throughout.

`CC1(C)S[C@@H]2[C@H](NC(=O)[C@H](N)c3ccccc3)C(=O)N2[C@H]1C(=O)O` [AMP, Ampicilln]: the Antimicrobial susceptibility testing entry in the data set with S. aureus isolates [1] (MRSA-1) was “R”; with S. aureus isolates [1] (MRSA-2), “R”; in the data set on S. aureus isolates [1] (MRSA-3), “R”; in the data set on S. aureus isolates [1] (MSSA-1) it was “S”; with S. aureus isolates [1] (MSSA-2), “S”.

On to KLKLLLLLKL [KLK1, variant of KLK], for which the MIC in data set [2] was greater than 256 µM; in data set [3] (drug resistant Mycobacterium abscessus isolates), less than 50 µg/mL. In data set [3] (against 62.5% of the tested isolates within 24 h), the killing is on record as ~ 99%.

Consider `CC[C@H]1OC(=O)[C@H](C)[C@@H](O[C@H]2C[C@@](C)(OC)[C@@H](O)[C@H](C)O2)[C@H](C)[C@@H](O[C@@H]2O[C@H](C)C[C@H](N(C)C)[C@H]2O)[C@](C)(O)C[C@@H](C)C(=O)[C@H](C)[C@@H](O)[C@]1(C)O` [E, Erythromycin], for which the Antimicrobial susceptibility testing result in the data set on S. aureus isolates [1] (MRSA-1), with S. aureus isolates [1] (MRSA-2), in the data set on S. aureus isolates [1] (MRSA-3), with S. aureus isolates [1] (MSSA-1) and in the data set on S. aureus isolates [1] (MSSA-2) was “S” throughout.

Regarding `CO[C@H]1/C=C/O[C@@]2(C)Oc3c(C)c(O)c4c(O)c(c(/C=N/N5CCN(C)CC5)c(O)c4c3C2=O)NC(=O)/C(C)=C\C=C\[C@H](C)[C@H](O)[C@@H](C)[C@@H](O)[C@@H](C)[C@H](OC(C)=O)[C@@H]1C` [RP, Rifampicin], the Antimicrobial susceptibility testing entry with S. aureus isolates [1] (MRSA-1), in the data set on S. aureus isolates [1] (MRSA-2), in the data set on S. aureus isolates [1] (MRSA-3), in the data set on S. aureus isolates [1] (MSSA-1) and with S. aureus isolates [1] (MSSA-2) was “S” each time.

`CO[C@@]1(NC(=O)Cc2cccs2)C(=O)N2C(C(=O)O)=C(COC(N)=O)CS[C@@H]21` [FOX, Cefoxicitin]: the Antimicrobial susceptibility testing entry in the data set on S. aureus isolates [1] (MRSA-1) was “R”; in the data set with S. aureus isolates [1] (MRSA-2), “R”; with S. aureus isolates [1] (MRSA-3), “R”; in the data set with S. aureus isolates [1] (MSSA-1) it was “S”; in the data set with S. aureus isolates [1] (MSSA-2), “S”.

Take `CC[C@H](C)[C@H](NC(=O)[C@H](CCCCN)NC(=O)[C@H](CCC(=O)O)NC(=O)[C@H](CCCCN)NC(=O)[C@H](CO)NC(=O)[C@H](CCCCN)NC(=O)[C@H](CCCNC(=N)N)NC(=O)[C@H](Cc1ccccc1)NC(=O)[C@H](Cc1ccccc1)NC(=O)[C@H](CC(=O)O)NC(=O)CNC(=O)[C@H](CC(C)C)NC(=O)[C@@H](N)CC(C)C)C(=O)NCC(=O)N[C@@H](CCCCN)C(=O)N[C@@H](CCC(=O)O)C(=O)N[C@@H](Cc1ccccc1)C(=O)N[C@@H](CCCCN)C(=O)N[C@@H](CCCNC(=N)N)C(=O)N[C@H](C(=O)N[C@H](C(=O)N[C@@H](CCC(N)=O)C(=O)N[C@@H](CCCNC(=N)N)C(=O)N[C@H](C(=O)N[C@@H](CCCCN)C(=O)N[C@@H](CC(=O)O)C(=O)N[C@@H](Cc1ccccc1)C(=O)N[C@@H](CC(C)C)C(=O)N[C@@H](CCCNC(=N)N)C(=O)N[C@@H](CC(N)=O)C(=O)N[C@@H](CC(C)C)C(=O)N[C@H](C(=O)N1CCC[C@H]1C(=O)N[C@@H](CCCNC(=N)N)C(=O)N[C@H](C(=O)N[C@@H](CCC(=O)O)C(=O)N[C@@H](CO)C(=O)O)[C@@H](C)O)C(C)C)[C@@H](C)CC)C(C)C)[C@@H](C)CC` [LL-37]: the HC50 in the data set on Human red blood cells is 150 µM and 673.5 µg/ml.

Consider `CO/N=C(\C(=O)N[C@@H]1C(=O)N2C(C(=O)[O-])=C(C[N+]3(C)CCCC3)CS[C@H]12)c1csc(N)n1` [FEP, Cefepime], for which the Antimicrobial susceptibility testing result is listed as “R” in the data set with S. aureus isolates [1] (MRSA-1); “R” in the data set with S. aureus isolates [1] (MRSA-2); “R” in the data set with S. aureus isolates [1] (MRSA-3); “S” in the data set with S. aureus isolates [1] (MSSA-1); “S” in the data set on S. aureus isolates [1] (MSSA-2).

Take Amoxicillin/clavulanic acid [AMC]: the Antimicrobial susceptibility testing result in the data set on S. aureus isolates [1] (MRSA-1) is on record as “R”; with S. aureus isolates [1] (MRSA-2) it was “R”; with S. aureus isolates [1] (MRSA-3), “R”; with S. aureus isolates [1] (MSSA-1), “S”; in the data set on S. aureus isolates [1] (MSSA-2), “S”.

With `CC(=O)NC[C@H]1CN(c2ccc(N3CCOCC3)c(F)c2)C(=O)O1` [LZD, Linezolide], the Antimicrobial susceptibility testing entry in the data set on S. aureus isolates [1] (MRSA-1), in the data set with S. aureus isolates [1] (MRSA-2), with S. aureus isolates [1] (MRSA-3), with S. aureus isolates [1] (MSSA-1) and in the data set with S. aureus isolates [1] (MSSA-2) was “S” each time.

For the molecule `CN[C@H](CC(C)C)C(=O)N[C@H]1C(=O)N[C@@H](CC(N)=O)C(=O)N[C@H]2C(=O)N[C@H]3C(=O)N[C@H](C(=O)N[C@H](C(=O)O)c4cc(O)cc(O)c4-c4cc3ccc4O)[C@H](O)c3ccc(c(Cl)c3)Oc3cc2cc(c3O[C@@H]2O[C@H](CO)[C@@H](O)[C@H](O)[C@H]2O[C@H]2C[C@](C)(N)[C@H](O)[C@H](C)O2)Oc2ccc(cc2Cl)[C@H]1O` [vancomycin, Vancomycin], the MIC in the data set on S. aureus isolates [4] (ATCC25923) was 0.25 µg/mL (≈ 0.173 µM); against S. aureus isolates [4] (MRSA-1) it was 0.25 µg/mL (≈ 0.173 µM); against S. aureus isolates [4] (MRSA-2) it was 0.5 µg/mL (≈ 0.345 µM); with S. aureus isolates [4] (MRSA-3), 0.5 µg/mL (≈ 0.345 µM); with S. aureus isolates [4] (MSSA-1) it was 0.25 µg/mL (≈ 0.173 µM); in the data set with S. aureus isolates [4] (MSSA-2), 0.25 µg/mL (≈ 0.173 µM). Further, in the data set with S. aureus isolates [4] (Staphylococcus aureus), the MIC fell in the range of 0.25 to 0.5 µg/mL (≈ 0.173 to 0.345 µM). For the same molecule, the minimum bactericidal concentration (MBC) against S. aureus isolates [5] (ATCC25923) turned out to be 0.25 µg/mL (≈ 0.173 µM); in the data set on S. aureus isolates [5] (MRSA-1), 0.5 µg/mL (≈ 0.345 µM); in the data set on S. aureus isolates [5] (MRSA-2), 0.5 µg/mL (≈ 0.345 µM); in the data set with S. aureus isolates [5] (MRSA-3), 0.5 µg/mL (≈ 0.345 µM); in the data set on S. aureus isolates [5] (MSSA-1), 0.25 µg/mL (≈ 0.173 µM); with S. aureus isolates [5] (MSSA-2), 0.25 µg/mL (≈ 0.173 µM). The Antimicrobial susceptibility testing entry in the data set with S. aureus isolates [1] (MRSA-1), with S. aureus isolates [1] (MRSA-2), in the data set on S. aureus isolates [1] (MRSA-3), in the data set on S. aureus isolates [1] (MSSA-1) and in the data set on S. aureus isolates [1] (MSSA-2) was “S” in each case. Also, the “time after which no regrowth was observed” value in data set [6] (ATCC 25923, 1 × MIC (0.25 μg/ml)) came out at 24 h; in data set [6] (ATCC 25923, 2 × MIC) it was 24 h; in data set [6] (MRSA, 1 × MIC) it was 24 h. Further, the “reduction in viable cell count” value in data set [6] (ATCC 25923, 1 × MIC, during 4 h) is ~ 3 log; in data set [6] (ATCC 25923, 2 × MIC, within 4 h), ~ 4 log; in data set [6] (MRSA, 1 × MIC (0.5 μg/ml), during 5 h), ~ 2 log; in data set [6] (MRSA, 2 × MIC (1 μg/ml), within 4 h), ~ 2 log; in data set [6] (MRSA, 2 × MIC (1 μg/ml), within 5 h), roughly 3 log. Besides, the “time after which no growth was observed” value in data set [6] (MRSA, 2 × MIC (1 μg/ml)) was found to be 24 h.

On to Trimethoprim/sulphamethoxazole [SXT], for which the Antimicrobial susceptibility testing entry is “S” in the data set on S. aureus isolates [1] (MRSA-1); “S” with S. aureus isolates [1] (MRSA-2); “R” in the data set on S. aureus isolates [1] (MRSA-3); “S” in the data set with S. aureus isolates [1] (MSSA-1); “S” in the data set with S. aureus isolates [1] (MSSA-2).

The values are drawn from PMC10817945, “Design of a novel analogue peptide with potent antibiofilm activities against Staphylococcus aureus based upon a sapecin B-derived peptide” (Scientific Reports, 2024).
